# In patent publication US20210317099A1, “SAFER, POTENT, AND FAST ACTING ANTIMICROBIAL AGENTS” (Purdue Research Foundation, priority 2020, published 2021):
# System: Staphylococcus aureus NRS384 (MRSA USA300)
# Assay: Initial MIC screening, broth microdilution (CLSI)
# Type: cell-based
# Settings: Staphylococcus aureus NRS384 (MRSA USA300), broth microdilution, visual reading
# Method: Method: The minimum inhibitory concentration (MIC) of the compounds 1-187, and control antibiotics (vancomycin, linezolid) was determined using the broth microdilution method against methicillin-resistant Staphylococcus aureus (MRSA) USA 300 using the broth microdilution method according to the guidelines outlined by the Clinical and Laboratory Standards Institute (CLSI). MRSA strain was cultivated on Tryptic soy agar plates and let grow for 24 hours at 37° C. under aerobic conditions. Bacterial suspension equivalent to 0.5 McFarland standard was prepared and diluted in cation-adjusted Mueller-Hinton broth (CAMHB) to attain a bacterial concentration of 5×10^5 CFU/ml and seeded in 96-well plates. The desired concentrations of each drug and compound were added in the first row of the 96-well plates and serially diluted to achieve a concentration gradient from 64 μg/ml to 0.5 μg/mL.
row,MIC,Compound
1,64 µg/mL,C=C1C(=O)O[C@H](c2ccccc2)[C@@H]1c1ccc2ccccc2c1 [Compound 112]
2,128 µg/mL,C=C1C(=O)O[C@H](c2ccnc3ccccc23)[C@H]1c1ccccc1 [Compound 120]
3,16 µg/mL,C=C1C(=O)O[C@H](c2ccnc3ccccc23)[C@H]1c1ccccc1 [Compound 113]
4,8 µg/mL,C=C1C(=O)O[C@H](c2ccccc2)[C@@H]1c1ccc2ccccc2c1 [Compound 152]

# Same assay, conditions: Staphylococcus aureus, Staphylococcus aureus NRS384 (MRSA USA300), broth microdilution, visual reading; read-out: MIC
row,Compound,MIC
1,CCC[C@H]1COC(=O)C1CN1CCCCC1 (stereo partly shown) [Compound 41],> 128 µg/mL
2,CCC[C@@H]1[C@H](CN2CCCCC2)C(=O)O[C@H]1c1ccc(SC)cc1 [Compound 45],> 128 µg/mL
3,CC(=O)Oc1cc([C@H]2OC(=O)C(CN3CCOCC3)[C@H]2c2ccccc2Br)ccc1OCc1ccccc1 (stereo partly shown) [Compound 57],> 128 µg/mL
4,C=C1C(=O)O[C@H](c2ccc(OCc3ccccc3)c(OC(C)=O)c2)[C@@H]1c1ccccc1Br [Compound 56],> 128 µg/mL
5,C=C1C(=O)O[C@H](c2ccc(N(C)C)cc2)[C@@H]1c1ccccc1 [Compound 98],> 128 µg/mL
6,COc1cc([C@H]2OC(=O)C(CN3CCCCC3)[C@H]2c2ccccc2Br)ccc1OCc1ccccc1 (stereo partly shown) [Compound 27],> 128 µg/mL
7,C=C1C(=O)O[C@H](CCCCCCCC)[C@@H]1/C=C/c1ccccc1 [Compound 51],> 128 µg/mL
8,O=C1OC[C@H](/C=C/c2ccccc2)[C@@H]1CN1CCCCC1 [Compound 46],> 128 µg/mL
9,C=C1C(=O)O[C@H](c2cnc3ccccc3c2)[C@H]1c1ccccc1 [Compound 99],32 µg/mL
10,N#Cc1ccc([C@H]2COC(=O)C2CN2CCCCC2)cc1 (stereo partly shown) [Compound 28],> 128 µg/mL
11,C=C1C(=O)O[C@H](c2ccc(N)cc2)[C@@H]1c1ccccc1 [Compound 22],32 µg/mL
12,C=C1C(=O)O[C@H](c2ccccc2O)[C@@H]1c1cccc(C#N)c1 [Compound 50],> 128 µg/mL
13,O=C1OC[C@H](c2ccco2)C1CN1CCCCC1 (stereo partly shown) [Compound 76],> 128 µg/mL
14,C=C1C(=O)O[C@H](c2ccc(OC)cc2)[C@H]1C [Compound 118],> 128 µg/mL
15,C=C1C(=O)O[C@H](c2ccnc3ccccc23)[C@@H]1c1ccccc1 [Compound 114],32 µg/mL
16,C=C1C(=O)O[C@H](CCO[Si](c2ccccc2)(c2ccccc2)C(C)(C)C)[C@@H]1c1ccc(C)cc1 [Compound 52],> 128 µg/mL
17,C=C1C(=O)O[C@H](c2cc(OC)c(OC)c(OC)c2)[C@@H]1c1ccc(C#N)cc1 [Compound 54],128 µg/mL
18,C=C1C(=O)O[C@H](/C=C/C)[C@@H]1c1ccc(Br)cc1 [Compound 59],32 µg/mL
19,O=C1OC(C2CCCCC2)[C@H](c2ccccc2)C1CN1CCCCC1 (stereo partly shown) [Compound 182],32 µg/mL
20,COc1ccc([C@H]2OC(=O)C(CN(C)C)[C@H]2c2ccc(OC)cc2)cc1 (stereo partly shown) [Compound 82],> 128 µg/mL
21,C=C1C(=O)OC(C2=CC=CCC2)C1C1CCCCC1 (stereo not shown) [Compound 185],> 64 µg/mL
22,Cc1ccc([C@H]2OC(=O)C(CN(C)C)[C@H]2c2ccc(C#N)cc2)cc1 (stereo partly shown) [Compound 14],> 128 µg/mL
23,C=C1C(=O)O[C@H](c2ccc(OC)cc2)[C@@H]1c1ccc(C#N)cc1 [Compound 70],32 µg/mL
24,O=C1O[C@H](c2cccc3ccccc23)[C@H](c2cccc3ccccc23)C1CN1CCCCC1 (stereo partly shown) [Compound 163],> 64 µg/mL
25,COc1ccc([C@@H]2C(CN(C)C)C(=O)O[C@@H]2c2ccccc2)cc1 (stereo partly shown) [Compound 17],64 µg/mL
26,CN(C)CC1C(=O)O[C@H](c2ccccc2)[C@@H]1c1ccc(C#N)cc1 (stereo partly shown) [Compound 16],> 128 µg/mL

row,Compound,MIC
1,"C=C1C(=O)O[C@H]2[C@H]1CC/C(C)=C/CC[C@@]1(C)O[C@@H]21 [Compound 125, Parthenolide, reference compound]",128 µg/mL
2,Cc1ccc([C@@H]2C(S3=NCCS3)C(=O)O[C@@H]2C2CCCCC2)cc1 (stereo partly shown) [Compound 91],> 128 µg/mL
3,C=C1C(=O)O[C@H](c2ccc(OC)cc2)[C@@H]1c1ccc(OC)cc1 [Compound 66],32 µg/mL
4,C=C1C(=O)O[C@H](c2ccc3ccccc3c2)[C@@H]1c1cccc2ccccc12 [Compound 157],> 64 µg/mL
5,C=C1C(=O)O[C@H](c2ccccc2OC)[C@@H]1c1ccc(C#N)cc1 [Compound 42],32 µg/mL
6,C=C1C(=O)O[C@H](c2ccccc2)[C@@H]1c1ccc(OC)cc1 [Compound 72],64 µg/mL
7,C=C1C(=O)O[C@H](c2ccc(C#N)cc2)[C@@H]1c1ccccc1 [Compound 39],64 µg/mL
8,C=C1C(=O)O[C@H](c2ccccc2)[C@@H]1c1ccc(C)cc1 [Compound 64],32 µg/mL
9,O=C1OC(c2ccccc2)C(C2CCCCC2)C1CN1CCCCC1 (stereo not shown) [Compound 186],> 64 µg/mL
10,C=C1C(=O)O[C@H](c2ccc(OC)cc2)[C@@H]1c1ccccc1B1OC(C)(C)C(C)(C)O1 [Compound 87],> 128 µg/mL
11,CN(C)CC1C(=O)O[C@H](c2ccccc2)[C@H]1c1ccccc1 (stereo partly shown) [Compound 11],32 µg/mL
12,C=C1C(=O)O[C@H](c2cccc(OC)c2)[C@@H]1c1ccc(C#N)cc1 [Compound 19],64 µg/mL
13,C=C1C(=O)O[C@H](c2ccc3ccccc3n2)[C@@H]1c1ccccc1 [Compound 116],> 128 µg/mL
14,C=C1C(=O)O[C@H](c2ccc(OC)cc2)[C@@H]1C [Compound 117],> 128 µg/mL
15,C=C1C(=O)O[C@H](c2ccc([N+](=O)[O-])cc2)[C@@H]1C [Compound 102],> 128 µg/mL
16,C=C(C(=O)OC)C(c1cccc2ccccc12)C(O)c1cccc2ccccc12 (stereo not shown) [Compound 145],> 64 µg/mL
17,O=C1OCCC1CN1CCCCC1 (stereo not shown) [Compound 34],> 128 µg/mL
18,COc1ccc([C@H]2OC(=O)C(CN(C)C)[C@H]2c2ccc(C#N)cc2)cc1 (stereo partly shown) [Compound 15],> 128 µg/mL
19,C[C@@]1(c2ccccc2)CC(CN2CCCCC2)C(=O)O1 (stereo partly shown) [Compound 33],> 128 µg/mL
20,C=C1C(=O)O[C@H](c2ccc(O)cc2)[C@@H]1c1cccc(C#N)c1 [Compound 43],128 µg/mL
21,C=C1C(=O)OC(C2CCCCC2)C1c1ccccc1 (stereo not shown) [Compound 181],> 64 µg/mL
22,COc1ccc([C@@H]2C(CN3CCCCC3)C(=O)O[C@@H]2c2ccc(C)cc2)cc1 (stereo partly shown) [Compound 35],64 µg/mL
23,C=C1C(=O)O[C@H](c2c(OC)cc(OC)cc2OC)[C@@H]1c1ccc(C(F)(F)F)cc1 [Compound 61],> 128 µg/mL
24,COc1ccc([C@H]2OC(=O)[C@@H](CN(C)C)[C@H]2c2ccccc2)cc1 [Compound 8],> 256 µg/mL
25,C=C1C(=O)O[C@H](c2ccc(OCc3ccccc3)c(OC)c2)[C@@H]1c1ccccc1Br [Compound 85],> 128 µg/mL
26,C=C1C(=O)O[C@H](c2ccc(O)cc2)[C@@H]1c1ccc(C#N)cc1 [Compound 4],256 µg/mL

# More lines, now with the values ahead:
row,MIC,Compound
1,32 µg/mL,Cc1ccc([C@@H]2[C@H](CN(C)C)C(=O)O[C@@H]2c2ccc(C)cc2)cc1 [Compound 6]
2,32 µg/mL,C=C1C(=O)O[C@H](c2ccnc3ncccc23)[C@H]1c1ccccc1 [Compound 121]
3,16 µg/mL,O=C1O[C@H](c2ccccc2)[C@H](c2ccc3ccccc3c2)C1CN1CCCCC1 (stereo partly shown) [Compound 161]
4,16 µg/mL,C=C1C(=O)O[C@H](c2ccccc2OC)[C@@H]1c1cccc(C#N)c1 [Compound 49]
5,16 µg/mL,CCN(CC)C[C@@H]1C(=O)O[C@H](c2ccccc2)[C@@H]1c1ccccc1 [Compound 62]
6,16 µg/mL,C=C(C(=O)OC)C(c1ccccc1)C(O)c1ccccc1 (stereo not shown) [Compound 141]
7,16 µg/mL,C=C1C(=O)O[C@H](c2cccc(OC)c2)[C@@H]1c1ccc(C(F)(F)F)cc1 [Compound 83]
8,16 µg/mL,C=C1C(=O)O[C@H](c2ccccc2)[C@@H]1C [Compound 97]
9,16 µg/mL,C=C1C(=O)O[C@H](c2ccccc2OC)[C@@H]1c1ccccc1Br [Compound 40]
10,16 µg/mL,C=C1C(=O)O[C@H](c2ccc(C#N)cc2)[C@@H]1c1ccc(C)cc1 [Compound 37]
11,16 µg/mL,C=C1C(=O)O[C@H](c2ccc3ccccc3c2)[C@@H]1c1ccccc1 [Compound 156]
12,16 µg/mL,C/C=C/[C@H]1OC(=O)C(CN2CCCCC2)[C@H]1c1ccc(Br)cc1 (stereo partly shown) [Compound 29]
13,16 µg/mL,C=C1C(=O)O[C@H](c2ccc(C(F)(F)F)cc2)[C@@H]1c1cccc(Br)c1 [Compound 88]
14,16 µg/mL,C=C1C(=O)O[C@H](c2cccc(F)c2F)[C@H]1c1ccccc1 [Compound 10]
15,16 µg/mL,C=C1C(=O)O[C@H](c2cc3ccccc3cn2)[C@@H]1C [Compound 105]
16,16 µg/mL,CN(C)C[C@@H]1C(=O)O[C@H](c2ccccc2)[C@@H]1c1ccccc1 [Compound 5]
17,8 µg/mL,C=C1C(=O)O[C@H](c2c(F)cccc2F)[C@@H]1c1ccccc1 [Compound 100]
18,8 µg/mL,C=C1C(=O)O[C@H](c2ccc(OC)cc2)[C@@H]1c1cccc(Br)c1 [Compound 3]
19,8 µg/mL,CCN(CC)CC1C(=O)O[C@H](c2ccccc2)[C@@H]1c1cccc2ccccc12 (stereo partly shown) [Compound 173]
20,8 µg/mL,C=C1C(=O)O[C@H](c2ccc3ccccc3c2)[C@H]1c1ccccc1 [Compound 110]
21,4 µg/mL,C=C(C(=O)OC)C(c1ccccc1)C(O)c1cccc2ccccc12 (stereo not shown) [Compound 142]
22,4 µg/mL,C=C1C(=O)O[C@H](c2ccc(Br)cc2)[C@@H]1c1ccc(C#N)cc1 [Compound 13]
23,4 µg/mL,CN(C)CC1C(=O)O[C@H](c2cccc3ccccc23)[C@@H]1c1ccc2ccccc2c1 (stereo partly shown) [Compound 169]
24,4 µg/mL,C=C1C(=O)O[C@H](c2ccccc2Br)[C@@H]1c1ccc(C#N)cc1 [Compound 12]
25,4 µg/mL,C=C1C(=O)O[C@H](c2ccccc2)[C@@H]1c1ccccc1Br [Compound 53]
26,2 µg/mL,C=C1C(=O)O[C@H](c2ccnc3ccccc23)[C@@H]1c1ccc2ccccc2c1 [Compound 111]
